From US8591878B2, “Therapeutic compounds” (Merck Sharp & Dohme Corp., priority 2008, dated 2013)
pIC50: −log10 of the molar value. Like-named read-outs stand apart in the source and are kept apart here.

Tested on: subgenomic HCV replicon in Huh-7 cells
Assay: Cell-Based HCV Replication Assay (replicon, NS3 Cell-ELISA)
Set-up: species or system hepatitis C virus (HCV)
Settings: NS3 expression by Cell-ELISA
Source text: Another suitable assay is the cellular Replicon or rheplisa assay described as follows:
Cell-Based HCV Replication Assay
Cell clones that stably maintain subgenomic HCV replicon were obtained by transfecting Huh-7 cells with an RNA replicon identical to I377neo/NS3-3′/wt described by V. Lohmann et al., 285 SCIENCE 110 (Jul. 2, 1999) (EMBL-GENBANK No. AJ242652), followed by selection with neomycin sulfate (G418). Viral replication was monitored by measuring the expression of the NS3 protein by an ELISA assay performed directly on cells grown in 96-well microtiter plates (Cell-ELISA) using the anti-NS3 monoclonal antibody 10E5/24 (as described in International Patent Application Publication WO 02/59321). Cells were seeded into 96 well plates at a density of 10^4 cells per well in a final volume of 0.1 ml of DMEM/10% FCS. Two hours after plating, 50 μl of DMEM/10% FCS containing a 3× concentration of inhibitor were added, cells were incubated for 96 hours and then fixed for 10 minutes with ice-cold isopropanol. Each condition was tested in duplicate and average absorbance values were used for calculations. The cells were washed twice with PBS, blocked with 5% non-fat dry milk in PBS+0.1% TRITON X-100+0.02% SDS (PBSTS) and then incubated o/n at 4° C. with the 10E5/24 mab diluted in Milk/PBSTS. After washing 5 times with PBSTS, the cells were incubated for 3 hours at room temperature with Fe-specific anti-mouse IgG conjugated to alkaline phosphatase (Sigma), diluted in Milk/PBSTS. After washing again as above, the reaction was developed with p-nitrophenyl phosphate disodium substrate (Sigma) and the absorbance at 405/620 nm read at intervals. For calculations, we used data sets where samples incubated without inhibitors had absorbance values comprised between 1 and 1.5. The inhibitor concentration that reduced by 50% the expression of NS3 (IC50) was calculated by fitting the data to the Hill equation, Fraction inhibition=1−(Ai−b)/(A0−b)=[I]^n/([I]+IC50) where: • Ai=absorbance value of HBI10 cells supplemented with the indicated inhibitor concentration. • A0=absorbance value of HBI10 cells incubated without inhibitor. • b=absorbance value of Huh-7 cells plated at the same density in the same microtiter plates and incubated without inhibitor. • n=Hill coefficient.

[1] = Hepatitis C virus, Huh-7 cells with subgenomic HCV replicon, 96 hours incubation, read-out: Cell based HCV Replication Assay-IC50
[2] = Hepatitis C virus, Huh-7 replicon cells, 96 hours, read-out: Cell-based HCV Replication Assay: IC50

`C=C[C@@H]1C[C@]1(NC(=O)[C@@H]1C[C@@H]2CN1C(=O)[C@H](C1CCCC1)NC(=O)N1CC[C@@H](C1)OCCC/C=C/c1cc3ccccc3cc1O2)C(=O)NS(=O)(=O)C1CC1` [Example 37, (1R,13E,19S,25S,28S)-25-cyclopentyl-N-((1R,2S)-1-{[(cyclopropylsulfonyl)amino]carbonyl}-2-vinylcyclopropyl)-23,26-dioxo-2,18-dioxa-22,24,27-triazapentacyclo [25.2.1.1^19,22.0^3,12.0^5,10] hentriaconta-3(12),4,5,7,9,10,13-heptaene-28-carboxamide] gave a pIC50 [1] of 8.40.

With `C=C[C@@H]1C[C@]1(NC(=O)[C@@H]1C[C@@H]2CN1C(=O)[C@H](C1CCCCC1)NC(=O)N1CC(C1)OCCC/C=C/c1cc3c(cc(OCC)nc3cc1OC)O2)C(=O)NS(=O)(=O)C1CC1` [Example 39, (3R,5S,8S,18E)-8-cyclohexyl-N-((1R,2S)-1-{[(cyclopropylsulfonyl)amino]carbonyl}-2-vinylcyclopropyl)-25-ethoxy-21-methoxy-7,10-dioxo-2,14-dioxa-6,9,11,24-tetraazapentacyclo [18.6.2.1^3,6.1^11,13.0^23,27] triaconta-1(26),18,20,22,24,27-hexaene-5-carboxamide] the pIC50 [1] was 7.72.

For `C=C[C@@H]1C[C@]1(NC(=O)[C@@H]1C[C@@H]2CN1C(=O)[C@H](C1CCCC1)NC(=O)N1CC[C@@H](C1)OCCCc1ccc3nc(OCC)nc(c3c1)O2)C(=O)NS(=O)(=O)C1CC1` [Example 41, (3R,5S,8S,14S)-8-cyclopentyl-N-((1R,2S)-1-{[(cyclopropylsulfonyl)amino]carbonyl}-2-vinylcyclopropyl)-24-ethoxy-7,10-dioxo-2,15-dioxa-6,9,11,23,25-pentaazapentacyclo [17.6.2.1^3,6.1^11,14.0^22,26] nonacosa-1(25),19,21,23,26-pentaene-5-carboxamide], the pIC50 [1] was 7.03.

`C=C[C@@H]1C[C@]1(NC(=O)[C@@H]1C[C@@H]2CN1C(=O)[C@H](C1CCCCC1)NC(=O)N1CC(C1)OCC/C=C/c1cc3c(cc(OCC)nc3cc1OC)O2)C(=O)NS(=O)(=O)C1CC1` [Example 44, (3R,5S,8S,17E)-8-Cyclohexyl-N-((1R,2S)-1-{[(cyclopropylsulfonyl)amino]carbonyl}-2-vinylcyclopropyl)-24-ethoxy-20-methoxy-7,10-dioxo-2,14-dioxa-6,9,11,23-tetraazapentacyclo[17.6.2.1^3,6.1^11,13.0^22,26]nonacosa-1(25),17,19,21,23,26-hexaene-5-carboxamide] gave a pIC50 [2] of 8.22.

In the case of `C=C[C@@H]1C[C@]1(NC(=O)[C@@H]1C[C@@H]2CN1C(=O)[C@H](C1CCCCC1)NC(=O)N1CC(C1)OCCCCc1cc3c(cc(OCC)nc3cc1OC)O2)C(=O)NS(=O)(=O)C1CC1` [Example 45, (3R,5S,8S)-8-cyclohexyl-N-((1R,2S)-1-{[(cyclopropylsulfonyl)amino]carbonyl}-2-vinylcyclopropyl)-24-ethoxy-20-methoxy-7,10-dioxo-2,14-dioxa-6,9,11,23-tetraazapentacyclo[17.6.2.1^3,6.1^11,13.0^22,26]nonacosa-1(25),19,21,23,26-pentaene-5-carboxamide], the pIC50 [2] was 8.22.

In the case of “(1R,13E,19S,25S,28S)-25- cyclohexyl-N-((1R,2S)-1- {[(cyclopropylsulfonyl)amino] carbonyl}-2- vinylcyclopropyl)-7-methoxy- 23,26-dioxo-2,18-dioxa- 4,22,24,27-tetraazapentacyclo [25.2.1.1^19,22.0^3,12.0^5,10] hentriaconta- 3(12),4,5,7,9,10,13-heptaene- 28-carboxamide [Example 42]”, the pIC50 (Huh-7 cells with subgenomic HCV replicon, 96 hours incubation, read-out: Cell based HCV Replication Assay-IC50) was 8.52.
